# Source: US20040235163A1, “Myocardial cell apoptosis inhibitors” (priority 2001, published 2004)
# Tests used:
# [1] = test system: neonatal rat ventricular myocytes (NRVMs); assay: Calcium ionophore A23187-induced apoptosis in cultured cardiac myocytes, flow cytometry; type: cell-based
# Protocol: Cultured neonatal rat ventricular myocytes (NRVMs) were provided as cardiac myocytes used in the experiments. More specifically, hearts were extracted from 0- to 1-day-old neonatal rats (Wister, pregnant rats were purchased from Chubu Shizai). The ventricles of each heart were then treated with collagenase Type 2 (Worthington) and pancreatin (Sigma) to enzymatically isolate cardiac myocytes (collagenase 0.5 mg/ml, pancreatin 0.6 mg/ml, 4 treatments), followed by primary culture. After the enzymatically collected cells were seeded in plates and allowed to stand for 30 minutes, non-adhesive cells were collected to remove fibroblasts. The resulting cardiac myocytes were seeded at a density of 1×10^5 cells/cm^2 on 6-well plates or 75 cm^2 flasks pre-coated with 1% gelatin and then cultured at 37° C. under 5% CO2 for 48 hours in a medium consisting of DMEM/Medium 199 (4:1), 10% fetal bovine serum (FBS, Sigma), 0.1 mM bromodeoxyuridine (BrdU, Roche), penicillin (50 units/ml, GIBCO) and streptomycin (50 μg/ml, GIBCO). Culturing was carried out in a CO2 incubator under conditions of 37° C. The medium was then replaced with a serum-free medium which had been prepared from the same ingredients other than FBS and supplemented with insulin-transferrin-selenium (ITS, GIBCO). These cells were provided for experiments 24 hours after replacement with the serum-free medium. After immunocytostaining with a cardiac myocytespecific antibody (α-actinin antibody), the percentage of cardiac myocytes was measured by microscopy to confirm that 90% or more of the cells were cardiac myocytes at that stage.
# Flow cytometry analysis was performed using a Coulter EPICSXL and a software package specific for this purpose. After collection of floating cardiac myocytes from the cell culture (1×10^6 cells/well), adhered cardiac myocytes were trypsinated and collected in the same tube. […] Propidium iodide (250 μL, 25 μg/ml, Sigma) was added to and suspended well in the cell suspension, which was then allowed to stand at room temperature for 20 minutes or more and analyzed by flow cytometry. Cells showing a Sub-G1 peak in nuclear staining with propidium iodide were counted as apoptotic cells to calculate the percentage of cells showing a Sub-G1 peak relative to the total cell count measured (1×10^4 cells). The calculated percentage was defined as the percentage of apoptotic cells.
# (§1) Calcium ionophore A23187 (Sigma) was added at a final concentration of 5×10^−6 M to the cell culture of cardiac myocytes prepared as described in Example 1. The cells were cultured as described in Example 1 and analyzed to determine the percentage of apoptotic cells. […]
# [2] = test system: neonatal rat ventricular myocytes (NRVMs); assay: H2O2-induced apoptosis in cultured cardiac myocytes, flow cytometry (Sub-G1 peak); type: cell-based
# [3] = test system: cardiac myocytes; assay: Apoptosis in cardiac myocytes measured as in Examples 1 and 2, modulators of the nicorandil effect; type: cell-based, rat
# Protocol: Flow cytometry analysis was performed using a Coulter EPICSXL and a software package specific for this purpose. After collection of floating cardiac myocytes from the cell culture (1×10^6 cells/well), adhered cardiac myocytes were trypsinated and collected in the same tube. After centrifugation, the pellet was washed with PBS, supplemented with 70% EtOH, and then allowed to stand at room temperature for 20 minutes or more to fix the cells. After fixation, the cells were washed with PBS, re-suspended in 1 ml PBS and then reacted with 50 μL RNase (1 mg/ml, Sigma) at 37° C. for 40 minutes. After the cells were allowed to stand at room temperature (if necessary), they were washed with PBS and suspended in about 250 μL PBS to prepare a cell suspension. Propidium iodide (250 μL, 25 μg/ml, Sigma) was added to and suspended well in the cell suspension, which was then allowed to stand at room temperature for 20 minutes or more and analyzed by flow cytometry. Cells showing a Sub-G1 peak in nuclear staining with propidium iodide were counted as apoptotic cells to calculate the percentage of cells showing a Sub-G1 peak relative to the total cell count measured (1×10^4 cells). The calculated percentage was defined as the percentage of apoptotic cells.
# H2O2 (Sigma) was added at a final concentration of 1×10^−4 M to the cell culture of cardiac myocytes prepared as described above (final density: 1×10^6 cells/2 ml/well), followed by culturing for 16 hours in a CO2 incubator. The cells were collected and analyzed by flow cytometory to determine the percentage of apoptotic cells. Nicorandil was also added at a final concentration of 1×10^−4 M immediately before H2O2 addition. […]
# as §1
# Apoptosis in cardiac myocytes was measured as described in Examples 1 and 2.
# [4] = test system: Bad protein (phospho-Bad Ser-136); assay: Western blot analysis of Bad phosphorylation in apoptotic cardiac myocytes; type: cell-based, rat; details: pre-treatment with nicorandil, apoptotic cells induced by H2O2 or A23187
# Protocol: Both floating and adhered cardiac myocytes were collected and lysed at 4° C. for 1 hour in a lysis buffer consisting of 20 mM Tris-HCl (pH 7.5), 2 mM EDTA, 3 mM EGTA, 2 mM DTT, 250 mM sucrose, 1% Triton X-100, 10 μg/ml aprotinin, 10 μM leupeptin and 0.1 mM PMSF. The resulting cell lysate was measured for its protein level by the Bradford method, solubilized in 2× sample buffer and then boiled at 95° C. for 3 minutes. After each lane was loaded with 50 μg sample and electrophoresed on a 12.5% SDS-polyacrylamide gel, the gel was transferred to a PVDF membrane. The blots were blocked overnight in 3% BSA/0.1% Tween-20 in PBS and then detected with the following primary antibodies: rabbit polyclonal Bcl-2 antibody (Pharmingen), rabbit polyclonal Bax antibody (Pharmingen), mouse monoclonal p53 antibody (Calbiochem), mouse monoclonal poly(ADP-ribose) polymerase (PARP) antibody (Clontech) and rabbit polyclonal CPP32 antibody (Santa Cruz). […]
# Both floating and adhered cardiac myocytes were collected from 75 cm^2 flasks and lysed in 0.5 mL lysis buffer consisting of 10 mM Tris-HCl (pH 7.4), 1 mM EDTA, 1 mM EGTA (pH 8.0), 150 mM NaCl, 1% Triton X-100, 0.2 mM sodium ortho-vanadate, 0.2 mM PMSF and 0.5% NP-40. […] The total Bad content was determined by probing with a rabbit polyclonal Bad antibody (New England Biolabs). […]
# [5] = test system: Neonatal rat cardiac myocytes; assay: JC-1 mitochondrial membrane potential, confocal microscopy, H2O2 stimulation; type: cell-based; details: pre-treatment with nicorandil 100 μmol/L; H2O2 200 μmol/L, 20 min
# Description: A fluorescent probe JC-1, a detection reagent for mitochondrial membrane potential, was used to confirm that nicorandil inhibited apoptosis in cardiac myocytes stimulated by H2O2. In most cases of cellular apoptosis, cytochrome C is translocated from mitochondrial membrane to cytosol, during which loss of mitochondrial membrane potential is known. Since JC-1 is a cationic fluorescent substance, it easily enters cells and emits red fluorescence (λem=590 nm) in normal cell mitochondria through formation of polymers called J-aggregates. […] Neonatal rat cardiac myocytes were seeded at a density of 1×10^6 cells/well in 35 mm dishes with glass bottoms (IWAKI) and cultured at 37° C. for 10 minutes in serum-free DMEM/F12 medium containing 10 μg/mL JC-1 (Wako Pure Chemical Industries, Ltd.). The cells on the dishes were observed using a confocal laser scanning microscope and a 20× objective lens. Fluorescence was excited by the 488 nm line of an argon laser and the 543 nm line of a helium-neon laser.
# [6] = test system: animal models of ischemic reperfusion; details: cited from earlier work
molecule,measurement,setting,value
CNc1ccc2oc(C[C@H]3O[C@@]4(CC[C@H]3C)O[C@H]([C@H](C)C(=O)c3ccc[nH]3)[C@H](C)C[C@H]4C)nc2c1C(=O)O [A23187],induction of apoptosis,[1]; A23187 5×10^−6 M,induced apoptosis significantly
"OO [H2O2, hydrogen peroxide]",percentage of apoptotic cells,"[2]; 1×10^−4 M H2O2, 16 hours, 10% or less in the absence of H2O2",more than 70%
COc1ccc2c(c[n+](C)c3c4cc5c(cc4ccc23)OCO5)c1OC [chelerythrine],effect on the anti-apoptotic effect of nicorandil,[3]; chelerythrine final concentration 10^−6 M,completely disappeared
ZVAD,block of the pro-apoptosis effect of A23187,"[1]; ZVAD 1×10^−5 M, A23187 5×10^−6 M",around 50%
nitroprusside,effect on the anti-apoptotic effect of nicorandil,[3]; nitroprusside final concentration 10^−4 M,enhanced
CCCCCC(O)CCCC(=O)O (stereo not drawn) [5-hydroxydecanoate],effect on the anti-apoptotic effect of nicorandil (H2O2-induced apoptosis),[2]; 5-hydroxydecanoate 5×10^−4 M + nicorandil 1×10^−4 M + H2O2 1×10^−4 M,partially blocked
same,effect on the anti-apoptotic effect of nicorandil (A23187-induced apoptosis),[1]; 5-hydroxydecanoate 5×10^−4 M + nicorandil 1×10^−4 M + A23187 5×10^−6 M,completely blocked
"O=C(NCCO[N+](=O)[O-])c1cccnc1 [nicorandil, N-(2-hydroxyethyl)nicotinamide nitrate ester]",inhibition of H2O2-induced apoptosis,"[2]; 1×10^−4 M nicorandil added immediately before 1×10^−4 M H2O2, 16 hours",significantly inhibited to the control level
same,inhibition at 100 µM,"[2]; Rattus norvegicus, Ventricular myocyte, pre-treatment with nicorandil 10^−4 M, read-out: inhibition of NRVM apoptosis induced by H2O2",60%
same,inhibition at 100 µM,"[1]; Rattus norvegicus, Ventricular myocyte, nicorandil 1×10^−4 M, A23187 5×10^−6 M, read-out: block / inhibition of apoptosis induced by calcium ionophore A23187",~50%
same,phosphorylation level of Bad,[4],increase the phosphorylation level of Bad
same,JC-1 green fluorescence (loss of mitochondrial membrane potential) upon H2O2 stimulation,[5],inhibit such green fluorescence
same,infarct size,[6],decrease infarct size
"COC(=O)[C@@H](N)CCCNC(=N)N[N+](=O)[O-] [L-NAME, N^G-nitro L-arginine methyl ester]",effect on the anti-apoptotic effect of nicorandil,[3]; L-NAME final concentration 10^−6 M,partially blocked
COc1ccc(Cl)cc1C(=O)NCCc1ccc(S(=O)(=O)NC(=O)NC2CCCCC2)cc1 [glibenclamide],effect on the anti-apoptotic effect of nicorandil (H2O2-induced apoptosis),[2]; glibenclamide 1×10^−5 M + nicorandil + H2O2 1×10^−4 M,completely blocked
